From US20220088131A1, “COMPOSITIONS AND METHODS RELATING TO C5L2” (King's College London, priority 2013, published 2022)

Tests used:
human CD4+ T cells [1] = assay: Rescue of CPM inhibitor-mediated increase in IFN-γ production by CD4+ T cells; type: cell-based; conditions: 24 h post activation, FIG. 13
Protocol: FIG. 13. Serum-purified C5adesArg can partially rescue carboxypeptidase M inhibitor (CPM)-mediated increase in IFN-γ production by CD4+ T cells. Purified human CD4+ T cells were activated with depicted immobilized antibodies in media, or in media with the addition of a CPM inhibitor with or without either serum-purified C5a or C5adesArg. IFN-γ production by cells was assessed 24 h post activation using the CBA Cytokine Bead Array ([…]). Data (±SD) are from three experiments (n=3). *, p<0.05; (student's paired t-test).
The ability of serum-purified C5adesArg to rescue carboxypeptidase M inhibitor (CPM)-mediated increase in IFN-γ production by CD4+ T cells was determined. Purified human CD4^+ T cells were activated in media, or in media with the addition of a CPM inhibitor with or without either serum-purified C5a or C5adesArg. IFN-γ production by cells was assessed 24 h post activation using the CBA Cytokine Bead Array. […] However, the increase in IFN-γ production was markedly lower when C5adesArg was present than when C5a was present and also markedly lower than in the absence of both C5a and C5adesArg. Addition of purified C5adesArg but not C5a reduced CPM inhibitor-induced increase in IFN-γ by about 25%.

human CD4+ T cells [2] = assay: Effect of carboxypeptidase M inhibition on cytokine secretion in CD4+ T cells (CBA); type: cell-based; conditions: resting and activated CD4+ T cells, 36 hours
Protocol: FIG. 12A. Effect of carboxypeptidase M (CPM) inhibition on cytokine secretion in resting and activated CD4+ T cells. CD4+ T cells (2.5×10^5) were activated as depicted for 36 hours and supernatants assayed for Th1/2/17 cytokines using CBA. Cells were treated with either C5aR/C5L2 double receptor antagonist (dRA; 7 μM), C5aR antagonist (PMX53; 10 μM), with or without a carboxypetidase M inhibitor (CPMi) or activated in media without any addition as a first control (non-treated, NT) or with a control peptide that lacks activity towards C5a and C5L2 as a second control (Control). The effect of antagonist treatment was assessed in non-activated T cells (white bars), as well as T cells activated with 0.25 μg plate-bound anti-CD3 (light grey bars), anti-CD3/28 (dark grey bars) or anti-CD3/46 (black bars). Data represent n=4 with standard error of the mean indicated. Bar graphs showing effect of CPMi on secretion of IL-17, IFN-γ, and TNFα by resting and activated CD4+ T cells. FIG. 12B. […]
CD4^+ T cells and CD14^+ monocytes were cultured in medium (RPMI-1640 medium (Sigma-Alich, Suffolk, UK), supplemented with 1% GlutaMAX, 1% penicillin/streptomycin (both Life Technologies, Paisley, UK) and 10% FBS (HyClone Laboratories, Logan, Utah). In the case of T cells media was supplemented with 25 U/ml IL-2 (Sigma-Aldrich; or with concentrations indicated in figure legends). CD4^+ T cells (2.5×10^5) were cultured alone or together with plate-bound anti-CD3 (OKT3, Biolegend, San Diego, Calif.), anti-CD3 and anti-CD28 (CD28.2, BD Pharmingen, San Jose, Calif.) or anti-CD3 and anti-CD46 (TRA-2-10, provided by John Atkinson, Washington University, St Louis, Mo.) all immobilised onto 48-well plates at concentrations of 2 μg/ml PBS overnight at 4° C. […] Cells were cultured at 37° C. and 5% CO2 and cytokine secetion assessed at 12, 24 or 36 h post activation.
The Th1/Th2/Th17 Cytometric Bead Array (BD Bioscience) was used to quantify cytokine production by CD4^+ T cells and monocytes following 12 or 36 h culture under distinct activation conditions. […]

human CD4+ T cells [3] = assay: Cytokine secretion by CD4+ T cells with C5aR or C5aR/C5L2 blockade (Cytometric Bead Array); type: cell-based
Source text: Human blood was obtained from healthy volunteers following ethical guidelines set by Kings College London (KCL) ethics committee (REC: 09/H0804/72). PBMCs were isolated by density centrifugation (Ficoll-Paque PLUS; GE healthcare, Uppsala, Sweden). Cell subsets were isolated by magnetic separation following manufacturer's instructions (Miltenyi Biotec, Auburn, Calif.). Monocytes were positively selected using anti-CD14 microbeads (average purity 97%) and CD4^+ T cells were isolated from the CD14-negative fraction using anti-CD4 microbeads (average purity 98%). Alternatively, CD4^+ T cells were isolated from purified PBMCs by cell sorting after staining with antibodies to CD14 and CD4 and CD3.
CD4^+ T cells and CD14^+ monocytes were cultured in medium (RPMI-1640 medium (Sigma-Alich, Suffolk, UK), supplemented with 1% GlutaMAX, 1% penicillin/streptomycin (both Life Technologies, Paisley, UK) and 10% FBS (HyClone Laboratories, Logan, Utah). In the case of T cells media was supplemented with 25 U/ml IL-2 (Sigma-Aldrich; or with concentrations indicated in figure legends). CD4^+ T cells (2.5×10^5) were cultured alone or together with plate-bound anti-CD3 (OKT3, Biolegend, San Diego, Calif.), anti-CD3 and anti-CD28 (CD28.2, BD Pharmingen, San Jose, Calif.) or anti-CD3 and anti-CD46 (TRA-2-10, provided by John Atkinson, Washington University, St Louis, Mo.) all immobilised onto 48-well plates at concentrations of 2 μg/ml PBS overnight at 4° C. Monocytes (2.5×10^5) were cultured either alone or in the presence of LPS or Flagellin (1 μg/ml). […] Cells were cultured at 37° C. and 5% CO2 and cytokine secetion assessed at 12, 24 or 36 h post activation.
(§1) The Th1/Th2/Th17 Cytometric Bead Array (BD Bioscience) was used to quantify cytokine production by CD4^+ T cells and monocytes following 12 or 36 h culture under distinct activation conditions. Samples were processed following manufacturer's instructions and acquired using BD FACScan. IL-1β amounts secreted into the cell media were measured by ELISA, according to the manufacturer's protocol (R&D Systems, Abingdon, UK).

CD14+ monocytes = assay: Pro-inflammatory cytokine release by monocytes (CBA); type: cell-based, human; conditions: resting and Flagellin-stimulated monocytes; 36 hours; dRA 7 μM, PMX53 10 μM; FIG. 9
Protocol: FIG. 9. C5L2 blockade induces pro-inflammatory cytokine release by human monocytes. CD14+ monocytes (2.5×10^5) were cultured for 36 hours and supernatants assayed for cytokines using CBA. Monocytes were treated with either C5aR/C5L2 double receptor antagonist (dRA; 7 μM), C5aR antagonist (PMX53; 10 μM) or control (non-treated). The effect of antagonist treatment was assessed on non-activated monocytes (white bars) as well as monocytes activated with 1 μg/ml of either Flagellin (light grey bars) or 100 ng/ml LPS (dark grey bars). Data represent n=4 experiments with SEM indicated. Statistical testing was not conducted as insufficient experimental repeats were performed to assume normal distribution. Asterisk denotes that the median value was 10,400 pg/ml.
Human blood was obtained from healthy volunteers following ethical guidelines set by Kings College London (KCL) ethics committee (REC: 09/H0804/72). PBMCs were isolated by density centrifugation (Ficoll-Paque PLUS; GE healthcare, Uppsala, Sweden). […]
as §1, with “Samples were processed following manufacturer's instructions and acquired using BD FACScan.” left out

[4] = activated CD4+ T cells, dRA 7 μM, PMX53 10 μM, FIG. 6

CPMi: carboxypetidase (CP) A and B inhibitor, which also effectively inhibits CPM (Sigma CO279; 25 nM) (QQHADPICNKPCKTHDDCSGAWFCQACWNSARTCGPYVG)
IFN-γ production (human CD4+ T cells [1]; all activation conditions): increased IFN-γ production | effect on IFN-γ secretion (human CD4+ T cells [2]; FIG. 12A): may also be present | secretion of IL-17 (human CD4+ T cells [2]; control cells, untreated cells and with C5aR antagonist, FIG. 12A): increased secretion | secretion of IL-6 (human CD4+ T cells [2]; control cells, untreated cells and with C5aR antagonist, FIG. 12B): increased secretion

PMX53 [reference compound]
secretion of IFN-γ (human CD4+ T cells [3]; [4]): no effect | secretion of IL-17 (human CD4+ T cells [3]; [4]): no effect | secretion of IL-6 (human CD4+ T cells [3]; resting and activated CD4+ T cells, FIG. 7A): no effect | secretion of IL-6 (CD14+ monocytes): no effect

B1: C5adesArg: serum-purified C5a lacking the C-terminal Arg; naturally occurring agonist of C5L2 (protein)
chain: TLQKKIEEIAAKYKHSVVKKCCYDGACVNNDETCEQRAARISLGPRCIKAFTECCVVASQLRANISHKDMQLG
reduction of CPM inhibitor-induced increase in IFN-γ (human CD4+ T cells [1]; serum-purified protein added with CPM inhibitor): about 25%
